Experimental data: paper PMC5564600 (Oncotarget, 2017)
Like-named read-outs stand apart in the source and are kept apart here.

Tests used:
PIK4CB = target: T1, PIK4CB (Homo sapiens, UniProt Q9UBF8); assay: KINOMEscan, PIK4CB; assay type: binding; conditions: for remaining binding at 1 µM: read-out: % of control at 1 µM; for remaining binding at 10 µM: read-out: % of control at 10 µM
T1 construct: purchased Ambit Biosciences (scanMAXX KINOMEscan)

[1] = target: T2, pseudokinase JH2 domain of JAK1 (Homo sapiens, UniProt P23458); assay: KINOMEscan, JAK1 JH2 domain; assay type: binding; conditions: for remaining binding at 1 µM / remaining binding at 10 µM: kinase JAK1(JH2domain-pseudokinase); for remaining binding at 1 µM: read-out: % of control at 1 µM; for remaining binding at 10 µM: read-out: % of control at 10 µM
T2 construct: the pseudokinase JH2 domain of JAK1 (89%); purchased Ambit Biosciences (scanMAXX KINOMEscan)

PIK3C2G = target: T3, PIK3C2G (Homo sapiens, UniProt O75747); assay: KINOMEscan, PIK3C2G; assay type: binding; conditions: for remaining binding at 1 µM / remaining binding at 10 µM: kinase PIK3C2G; for remaining binding at 1 µM: read-out: % of control at 1 µM; for remaining binding at 10 µM: read-out: % of control at 10 µM
T3 construct: purchased Ambit Biosciences (scanMAXX KINOMEscan)
T3 sequence (O75747 1-1486): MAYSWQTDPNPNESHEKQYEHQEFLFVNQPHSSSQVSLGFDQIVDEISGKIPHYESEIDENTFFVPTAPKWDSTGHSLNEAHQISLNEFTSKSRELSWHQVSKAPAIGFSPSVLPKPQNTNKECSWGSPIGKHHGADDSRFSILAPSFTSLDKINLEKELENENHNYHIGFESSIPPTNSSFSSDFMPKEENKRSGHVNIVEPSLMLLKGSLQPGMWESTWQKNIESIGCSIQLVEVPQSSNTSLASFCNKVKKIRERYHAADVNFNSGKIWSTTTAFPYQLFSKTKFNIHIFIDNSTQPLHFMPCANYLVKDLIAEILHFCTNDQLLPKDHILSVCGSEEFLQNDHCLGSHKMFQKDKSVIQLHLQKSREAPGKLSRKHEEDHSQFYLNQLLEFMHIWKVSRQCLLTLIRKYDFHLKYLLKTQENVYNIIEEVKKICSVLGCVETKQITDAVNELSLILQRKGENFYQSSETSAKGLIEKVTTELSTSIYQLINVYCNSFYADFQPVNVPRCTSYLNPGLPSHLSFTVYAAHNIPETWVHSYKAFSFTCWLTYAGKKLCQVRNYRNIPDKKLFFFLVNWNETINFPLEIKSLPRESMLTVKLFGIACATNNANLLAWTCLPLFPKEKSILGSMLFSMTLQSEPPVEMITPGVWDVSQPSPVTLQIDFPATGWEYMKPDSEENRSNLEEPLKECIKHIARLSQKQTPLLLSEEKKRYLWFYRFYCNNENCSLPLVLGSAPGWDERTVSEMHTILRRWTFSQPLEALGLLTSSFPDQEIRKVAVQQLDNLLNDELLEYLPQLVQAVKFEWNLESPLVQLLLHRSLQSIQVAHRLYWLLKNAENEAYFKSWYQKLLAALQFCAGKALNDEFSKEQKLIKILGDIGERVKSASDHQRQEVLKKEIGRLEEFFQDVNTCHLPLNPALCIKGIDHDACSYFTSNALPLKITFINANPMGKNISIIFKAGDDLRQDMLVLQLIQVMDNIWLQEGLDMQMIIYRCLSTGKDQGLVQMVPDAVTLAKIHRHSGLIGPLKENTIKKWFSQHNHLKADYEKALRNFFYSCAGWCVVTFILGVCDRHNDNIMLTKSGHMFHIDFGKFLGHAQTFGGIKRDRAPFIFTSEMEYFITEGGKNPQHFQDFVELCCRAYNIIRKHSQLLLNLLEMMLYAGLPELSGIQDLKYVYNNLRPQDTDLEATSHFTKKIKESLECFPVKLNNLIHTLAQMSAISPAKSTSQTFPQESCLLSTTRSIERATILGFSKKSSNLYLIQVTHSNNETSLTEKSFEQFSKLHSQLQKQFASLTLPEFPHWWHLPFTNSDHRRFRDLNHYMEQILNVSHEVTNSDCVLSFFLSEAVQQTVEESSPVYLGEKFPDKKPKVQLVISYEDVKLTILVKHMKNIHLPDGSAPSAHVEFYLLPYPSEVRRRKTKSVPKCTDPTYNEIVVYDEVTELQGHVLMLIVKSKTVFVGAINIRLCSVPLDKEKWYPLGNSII

CLK1 = target: T4, CLK1 (Homo sapiens, UniProt P49759); assay: KINOMEscan, CLK1; assay type: binding; conditions: for remaining binding at 1 µM: read-out: % of control at 1 µM
T4 construct: purchased Ambit Biosciences (scanMAXX KINOMEscan)

panel of 442 kinases [2] = target: panel of 442 kinases (Homo sapiens, UniProt P42336, H1047L); assay: biochemical; assay type: binding; conditions: kinase PIK3CA(H1047L); 1 µM; read-out: % of control at 1 µM
panel of 442 kinases [3] = target: panel of 442 kinases (Homo sapiens, UniProt P42336, E545A); assay: biochemical; assay type: binding; conditions: kinase PIK3CA(E545A); 1 µM; read-out: % of control at 1 µM
panel of 442 kinases [4] = target: panel of 442 kinases (Homo sapiens, UniProt P42336, I800L); assay: biochemical; assay type: binding; conditions: kinase PIK3CA(I800L); 1 µM; read-out: % of control at 1 µM
panel of 442 kinases [5] = target: panel of 442 kinases (Homo sapiens, UniProt P42336, C420R); assay: biochemical; assay type: binding; conditions: kinase PIK3CA(C420R); 1 µM; read-out: % of control at 1 µM
panel of 442 kinases [6] = target: panel of 442 kinases (Homo sapiens, UniProt P42336, M1043I); assay: biochemical; assay type: binding; conditions: kinase PIK3CA(M1043I); 1 µM; read-out: % of control at 1 µM
panel of 442 kinases [7] = target: panel of 442 kinases (Homo sapiens, UniProt P42336, E545K); assay: biochemical; assay type: binding; conditions: kinase PIK3CA(E545K); 1 µM; read-out: % of control at 1 µM
panel of 442 kinases [8] = target: panel of 442 kinases (Homo sapiens, UniProt P42336, H1047Y); assay: biochemical; assay type: binding; conditions: kinase PIK3CA(H1047Y); 1 µM; read-out: % of control at 1 µM
panel of 442 kinases [9] = target: panel of 442 kinases (Homo sapiens, UniProt P42336, Q546K); assay: biochemical; assay type: binding; conditions: kinase PIK3CA(Q546K); 1 µM; read-out: % of control at 1 µM
panel of 442 kinases [10] = target: panel of 442 kinases (Homo sapiens, UniProt P42336, E542K); assay: biochemical; assay type: binding; conditions: kinase PIK3CA(E542K); 1 µM; read-out: % of control at 1 µM
panel of 442 kinases [11] = target: panel of 442 kinases (Homo sapiens, UniProt Q16584); assay: biochemical; assay type: binding; conditions: kinase MLK3; 1 µM; read-out: % of control at 1 µM
mTOR = mTOR (Homo sapiens, UniProt P42345); assay: SelectScreen Z'LYTE kinase assay (Invitrogen), mTOR; assay type: biochemical; conditions: determined by Invitrogen, mean ± SEM, n=2

With `Nc1cc(C(F)(F)F)c(-c2cc(N3CCOCC3)nc(N3CCOCC3)n2)cn1` [Buparlisib] the remaining binding at 1 µM (PIK4CB; kinase PIK4CB, 1 µM) was 86%, the remaining binding at 10 µM (PIK4CB; kinase PIK4CB) was 100% and the remaining binding at 1 µM [1] was 89%. It also gave a remaining binding at 10 µM [1] of 76%, a remaining binding at 1 µM (PIK3C2G) of 97% and a remaining binding at 10 µM (PIK3C2G) of 35%. For the same compound, the “binding to CLK1” value (CLK1; 10 μM) was > 80%, the remaining binding at 1 µM (CLK1; CLK1) was 42% and the remaining binding at 10 µM (CLK1; CLK1, 10 µM, read-out: % of control at 10 µM) was 5.3%.
For `COc1ncc(-c2ccc3nccc(-c4ccnnc4)c3c2)cc1NS(=O)(=O)c1ccc(F)cc1F` [Omipalisib], the “off-target binding to PIK4CB” value (PIK4CB; 1 μM) was “non-selective”, the remaining binding at 1 µM (PIK4CB; kinase PIK4CB, 1 µM) was 0.7% and the remaining activity at 1 µM (panel of 442 kinases [2]) was 5.6%. It also gave a remaining activity at 1 µM (panel of 442 kinases [3]) of 0%, a remaining activity at 1 µM (panel of 442 kinases [4]) of 3.8% and a remaining activity at 1 µM (panel of 442 kinases [5]) of 0%. It also gave a remaining activity at 1 µM (panel of 442 kinases [6]) of 0%, a remaining activity at 1 µM (panel of 442 kinases [7]) of 0.1% and a remaining activity at 1 µM (panel of 442 kinases [8]) of 0%. For the same compound, the remaining activity at 1 µM (panel of 442 kinases [9]) was 0.1%, the remaining activity at 1 µM (panel of 442 kinases [10]) was 0.05% and the remaining binding at 1 µM [1] was 57%. For the same compound, the “off-target binding to PIK3C2G” value (PIK3C2G; 1 μM) was “non-selective”, the remaining binding at 1 µM (PIK3C2G) was 0% and the remaining binding at 1 µM (CLK1; CLK1) was 96%.
Work on `FC(F)c1nc2ccccc2n1-c1nc(N2CCOCC2)nc(N2CCOCC2)n1` [ZSTK474, 2-(difluoromethyl)-1-[4,6-di(4-morpholinyl)-1,3,5-triazin-2-yl]-1H-benzimidazole] yielded a remaining binding at 1 µM (PIK4CB; kinase PIK4CB, 1 µM) of 84%, a remaining activity at 1 µM (panel of 442 kinases [11]) of 56% and a remaining binding at 1 µM [1] of 100%. For the same compound, the IC50 (mTOR) was 102 ± 19 nM, the “off-target binding to PIK3C2G” value (PIK3C2G; 1 μM) was “high binding affinity” and the remaining binding at 1 µM (PIK3C2G) was 0%. It also gave a remaining binding at 1 µM (CLK1; CLK1) of 100%.
`CS(=O)(=O)N1CCN(Cc2cc3nc(-c4cccc5[nH]ncc45)nc(N4CCOCC4)c3s2)CC1` [Pictilisib, 2-(1H-indazol-4-yl)-6-(4-methanesulfonyl-piperazin-1-ylmethyl)-4-morpholin-4-yl-t hieno[3,2-d]pyrimidine] was tested, and the remaining binding at 1 µM (PIK4CB; kinase PIK4CB, 1 µM) was 100%, the remaining binding at 10 µM (PIK4CB; kinase PIK4CB) was 75% and the inhibition at 1 µM ([1]; 1 μM) was 89%. For the same compound, the remaining binding at 1 µM [1] was 11%, the remaining binding at 10 µM [1] was 0.85% and the “off-target activity against PIK3C2G” value (PIK3C2G; 10 μM) was “active”. The remaining binding at 1 µM (PIK3C2G) was 32% and the remaining binding at 10 µM (PIK3C2G) was 2.1%.
`Cn1c(=O)n(-c2ccc(C(C)(C)C#N)cc2)c2c3cc(-c4cnc5ccccc5c4)ccc3ncc21` [Dactolisib, 2-methyl-2-[4-(3-methyl-2-oxo-8-quinolin-3-yl-2,3-dihydroimidazo[4,5-c]quinolin-1-yl)-phenyl] propionitrile] showed a remaining binding at 1 µM (PIK4CB) of 64%, a remaining activity at 1 µM (panel of 442 kinases [2]) of 0.15% and a remaining activity at 1 µM (panel of 442 kinases [3]) of 9.2%. It also gave a remaining activity at 1 µM (panel of 442 kinases [4]) of 0%, a remaining activity at 1 µM (panel of 442 kinases [5]) of 8.1% and a remaining activity at 1 µM (panel of 442 kinases [6]) of 1.4%. The remaining activity at 1 µM (panel of 442 kinases [7]) was 5.5%, the remaining activity at 1 µM (panel of 442 kinases [8]) was 3.8% and the remaining activity at 1 µM (panel of 442 kinases [10]) was 6.4%. For the same compound, the remaining binding at 1 µM [1] was 43%, the inhibition at 1 µM (PIK3C2G; 1 μM) was > 80% and the remaining binding at 1 µM (PIK3C2G) was 0%. For the same compound, the inhibition at 1 µM (CLK1; 1 μM) was > 80% and the remaining binding at 1 µM (CLK1; CLK1) was 13%.
